Data taken from US5840918A, “Isoprenyl transferase inhibitors” (Eisai Co., Ltd., priority 1997, dated 1998).

Tests used:
[1] = molecular target: T1, FTase (Bos taurus, UniProt P29702+P49355); assay: Inhibition of FTase-mediated prenylation (in vitro prenylation assay); format: biochemical; conditions: Table 1; partially purified FTase, 3 μM recombinant H-ras, 440 nM [3H]FPP, 15 min 37° C
T1 construct: bovine brain by inference from the cited Moores et al. 1991
Description: (§1) Nanomolar concentrations of the indicated compounds were sufficient to inhibit farnesylation of ras proteins in vitro. For screening candidate compounds useful for the treatment of ras-associated tumors, the FTase assay is preferred. […] Substitutions which confer GGTase specificity as taught herein also produced potent inhibitors of GGTase.

[2] = molecular target: GGTase; assay: Inhibition of GGTase-mediated prenylation (in vitro prenylation assay); format: biochemical; conditions: Table 1; partially purified GGTase, 5 μM recombinant H-ras (61L, CAIL), 1 μM [3H] geranylgeranyl diphosphate
Description: as §1

[3] = test system: H-ras farnesylation in H-ras (61L) transformed NIH3T3 fibroblasts; assay: Inhibition of H-ras farnesylation in whole cells (Western blot); format: cell-based, mouse; conditions: Mus musculus, NIH3T3, 24 h, Table 2
Method: The ability of compounds of the invention to inhibit H-ras farnesylation and rap1 geranylgeranylation in whole cells was determined. H-ras (61L) transformed NIH3T3 fibroblasts were generously provided by C. Der, Univ. N. Carolina. These fibroblasts were treated for 24 h with 50 μM lovastatin (control) or the indicated concentrations of inhibitor. The cells were lysed in 1% NP-40, 5 mM Tris-HCl (pH 8.0), 5 mM EDTA, 0.1 mM N-tosyl-L-phenylalanine chloromethyl ketone, 0.1 mM N-tosyl-L-lysine chloromethyl ketone, and 1 mM phenylmethylsulfonyl fluoride. The lysate was centrifuged (15000×g, 5 min.) and the supernatant was used as a cell extract. […] After transfer to IMMOBILON P™ membrane (Millipore), the blots were probed with LA069 mouse monoclonal antibody to H-ras (Quality Biotech), or rabbit polyclonal antibody to rap1/Krev (Santa Cruz Biotechnology). All Western blots were developed using ECL chemiluminescent reagents (Amersham).

IC50 [1] [nM] | IC50 [2] [nM] | Compound | IC50 [3] [nM]
146 | 1110 | COC(=O)[C@H](CCSC)N(C)C(=O)C(/C=C\[C@@H](/C=C/C(N)CS)C(C)C)Cc1ccccc1 (stereo partly drawn) [PD451] | 400
43 | 1030 | COC(=O)[C@H](CCSC)NC(=O)C(Cc1ccccc1)OC[C@@H](/C=C/C(N)CS)C(C)C (stereo partly drawn) [PE011] | 10
9 | 92 | CSCC[C@H](NC(=O)C(Cc1ccccc1)OC[C@@H](/C=C/C(N)CS)C(C)C)C(=O)O (stereo partly drawn) [PE021] | 280
20 | 140 | CC(C)[C@H](/C=C/C(N)CS)COC(Cc1ccccc1)C(=O)N[C@@H](CCS(C)(=O)=O)C(=O)O (stereo partly drawn) [PE031] | 330
27 | 160 | CSCCC(NC(=O)C(Cc1ccccc1)OCC(C=CC(N)CSSCC(N)C=CC(COC(Cc1ccccc1)C(=O)NC(CCSC)C(=O)O)C(C)C)C(C)C)C(=O)O (stereo not drawn) [PE041] | 190
290 | 2300 | COC(=O)C(CCSC)NC(=O)C(Cc1ccccc1)OCC(C=CC(N)CSSCC(N)C=CC(COC(Cc1ccccc1)C(=O)NC(CCSC)C(=O)OC)C(C)C)C(C)C (stereo not drawn) [PE051] | 110
60 | 6300 | COC(=O)[C@H](CCS(C)(=O)=O)NC(=O)C(Cc1ccccc1)OC[C@@H](/C=C/C(N)CS)C(C)C (stereo partly drawn) [PE061] | 1100
1130 | 1600 | COc1ccc(-c2ccc(C/C=C/[C@@H](N)CS)cc2C(=O)N[C@@H](CCSC)C(=O)O)cc1 [PM011] | > 100000
2 | 520 | C=Cc1ccc(C/C=C/C(N)CS)cc1C(=O)N[C@@H](CCSC)C(=O)O (stereo partly drawn) [PM012] | 2700
17 | 75 | CSCC[C@H](NC(=O)c1cc(C/C=C/C(N)CS)ccc1-c1ccsc1)C(=O)O (stereo partly drawn) [PM021] | 2100
18 | 130 | NC(C=CCc1ccc(-c2ccsc2)c(C(=O)NC(Cc2cccs2)C(=O)O)c1)CSSCC(N)C=CCc1ccc(-c2ccsc2)c(C(=O)NC(Cc2cccs2)C(=O)O)c1 (stereo not drawn) [PM022] | 13100
115 | 1400 | COC(=O)[C@H](CCSC)NCc1cc(C/C=C/[C@@H](N)CS)ccc1-c1ccccc1 [PM031] | 25000
93 | 6590 | COC(=O)[C@H](CCS(C)(=O)=O)NC(=O)c1cc(CCC[C@@H](N)CS)ccc1-c1ccsc1 [PM032] | 19500
180 | 1400 | COC(=O)[C@H](CCSC)NC(=O)c1cc(C/C=C/[C@@H](N)CS)ccc1-c1ccccc1 [PM041] | 2300
3100 | 320 | CSCC[C@H](NC(=O)c1cc(C/C=C/[C@@H](N)CS)ccc1-c1cc(C(F)(F)F)cc(C(F)(F)F)c1)C(=O)O [PM042] | > 500000
0.85 | 1550 | NC(=O)CC[C@H](NC(=O)c1cc(C/C=C/C(N)CS)ccc1-c1ccccc1)C(=O)O (stereo partly drawn) [PM051] | 23500
0.3 | 190 | CSCC[C@H](NC(=O)c1cc(C/C=C/C(N)CS)ccc1-c1ccco1)C(=O)O (stereo partly drawn) [PM052] | 2600
9 | 420 | CCc1ccc(C/C=C/C(N)CS)cc1C(=O)N[C@@H](CCSC)C(=O)O (stereo partly drawn) [PM062] | 360
710 | 950 | CSCC[C@H](NC(=O)c1cc(C/C=C/C(N)CS)ccc1-c1ccc(C(F)(F)F)cc1)C(=O)O (stereo partly drawn) [PM071] | > 100000
160 | 3960 | CC(C)COC(=O)[C@H](CCS(C)(=O)=O)NC(=O)c1cc(C/C=C/[C@@H](N)CS)ccc1-c1ccsc1 [PM072] | 2400
170 | 1680 | CSCC[C@H](NC(=O)c1cc(C/C=C/C(N)CS)ccc1-c1ccccc1)C(N)=O (stereo partly drawn) [PM081] | 23400
30 | 148 | CSCC[C@H](NC(=O)c1cc(C/C=C/C(N)CS)ccc1-c1cccc2ccccc12)C(=O)O (stereo partly drawn) [PM082] | 21000

IC50 [1] [nM] | IC50 [2] [nM] | Compound | IC50 [3] [nM]
2 | > 1000 | NC(/C=C/Cc1ccc(-c2ccccc2)c(C(=O)N[C@@H](CO)C(=O)O)c1)CS (stereo partly drawn) [PM091] | 474000
215 | 3500 | COC(=O)[C@H](Cc1cccs1)NC(=O)c1cc(C/C=C/C(N)CS)ccc1-c1ccsc1 (stereo partly drawn) [PM092] | 2700
24 | 793 | CSCC[C@H](NC(=O)c1cc(C/C=C\C(N)CS)ccc1-c1ccccc1)C(=O)O (stereo partly drawn) [PM101] | 14600
290 | 4850 | CSCC[C@H](NC(=O)c1cccc(C/C=C/C(N)CS)c1)C(=O)O (stereo partly drawn) [PM102] | 26000
24 | 246 | CSCC[C@H](NC(=O)c1cc(C/C=C/C(N)CS)ccc1-c1cccc(C(F)(F)F)c1)C(=O)O (stereo partly drawn) [PM111] | > 100000
1.2 | 1660 | CSCC[C@H](NC(=O)c1cc(C/C=C/C(N)CS)ccc1C)C(=O)O (stereo partly drawn) [PM112] | 4000
22 | 1720 | CSCC[C@H](NCc1cc(C/C=C/C(N)CS)ccc1-c1ccccc1)C(=O)O (stereo partly drawn) [PM121] | 23400
3 | 2200 | COc1ccc(C/C=C/C(N)CS)cc1C(=O)N[C@@H](CCSC)C(=O)O (stereo partly drawn) [PM122] | 23400
605 | 2.4 | CC(C)C[C@H](NC(=O)c1cc(C/C=C/C(N)CS)ccc1-c1ccccc1)C(=O)O (stereo partly drawn) [PM131] | > 250000
119 | 1630 | COC(=O)[C@H](CCSC)NC(=O)c1cc(CCCC(N)CS)ccc1-c1ccsc1 (stereo partly drawn) [PM132] | 1600
0.1 | 16 | CSCCC(NC(=O)c1cc(CC=CC(N)CSSCC(N)C=CCc2ccc(-c3ccccc3)c(C(=O)NC(CCSC)C(=O)O)c2)ccc1-c1ccccc1)C(=O)O (stereo not drawn) [PM141] | 9700
8 | 72 | COc1ccccc1-c1ccc(C/C=C/C(N)CS)cc1C(=O)N[C@@H](CCSC)C(=O)O (stereo partly drawn) [PM142] | 1100
605 | 3870 | CCOC(=O)[C@H](CCSC)NC(=O)c1cc(C/C=C/C(N)CS)ccc1-c1ccccc1 (stereo partly drawn) [PM151] | 2900
38 | 270 | NC(/C=C/Cc1ccc(-c2ccsc2)c(C(=O)N[C@@H](Cc2cccs2)C(=O)O)c1)CS (stereo partly drawn) [PM152] | 40300
0.9 | 2140 | CS(=O)(=O)CC[C@H](NC(=O)c1cc(C/C=C/C(N)CS)ccc1-c1ccccc1)C(=O)O (stereo partly drawn) [PM161] | 18900
1.8 | 120 | CSCC[C@H](NC(=O)c1cc(CCCC(N)CS)ccc1-c1ccsc1)C(=O)O (stereo partly drawn) [PM162] | 13100
56 | 123 | NC(/C=C/Cc1ccc(-c2ccccc2)c(C(=O)N[C@@H](Cc2ccccc2)C(=O)O)c1)CS (stereo partly drawn) [PM172] | > 100000
17 | 520 | CSCC[C@H](NC(=O)c1cc(C/C=C/C(N)CS)ccc1-c1cccs1)C(=O)O (stereo partly drawn) [PM182] | 2700
280 | 3790 | COC(=O)[C@H](CCSC)NC(=O)c1cc(C/C=C/C(N)CS)ccc1-c1ccsc1 (stereo partly drawn) [PM192] | 230
16 | 7420 | COC(=O)[C@H](CCS(C)(=O)=O)NC(=O)c1cc(C/C=C/C(N)CS)ccc1-c1ccsc1 (stereo partly drawn) [PM202] | 1200
56 | 1840 | CCc1ccc(C/C=C/C(N)CS)cc1C(=O)N[C@@H](CCSC)C(=O)OC (stereo partly drawn) [PM212] | 45
43 | 638 | COC(=O)[C@H](CCSC)NC(=O)C(Cc1ccccc1)SC[C@@H](/C=C/C(N)CS)C(C)C (stereo partly drawn) [PT011] | 23
